Converted amounts (≈) assume the structure as drawn. Where two headings read alike, the source gives them in different places.
What was measured:
[1] = Solubility of compound (1) in ethanol/water (2:1); assay type: physicochemical; settings: 40° C., stirred one hour, listed as V (form A)
Procedure: Samples of compound (1) (5 g) were suspended in ethanol/water (2:1, 100 mL) and stirred for one hour at temperatures of 22° C., 30° C., and 40° C., respectively. The suspensions were filtered and the solids dried in a vacuum oven at room temperature overnight to give the insoluble material. The solubilities were calculated by subtractive means based on recovered material.

[2] = Solubility compared to other polymorphs (solvent not given); assay type: physicochemical
[3] = system: asthma and allergic diseases; assay: Oral activity for treatment of asthma and allergic diseases; assay type: in vivo

SMILES | Solubility [1] [mg/mL] | solubility compared to other crystalline forms [2] | solubility compared to other crystalline forms ([2]; listed as form A) | oral activity for treatment of asthma and allergic diseases [3]
CCCc1c(SCCCOc2ccc(C(C)=O)c(OCCCC(=O)O)c2CCC)ccc(C(C)=O)c1O [Form V, 4-[6-acetyl-3-[3-(4-acetyl-3-hydroxy-2-propylphenylthio)propoxy]-2-propylphenoxy]butyric acid] | 46 (≈ 86.7 mM) | superior | high | –
CCCc1c(SCCCOc2ccc(C(C)=O)c(OCCCC(=O)O)c2CCC)ccc(C(C)=O)c1O [compound (1), 4-[6-acetyl-3-[3-(4-acetyl-3-hydroxy-2-propylphenylthio)propoxy]-2-propylphenoxy]butyric acid] | – | – | – | orally active
